Reference: US20230382925A1, “MODULATORS OF CYSTIC FIBROSIS TRANSMEMBRANE CONDUCTANCE REGULATOR” (VERTEX PHARMACEUTICALS INCORPORATED, priority 2020, published 2023)
pEC50: −log10 of the molar value. Like-named read-outs stand apart in the source and are kept apart here.

Biological target: CFTR (Homo sapiens, UniProt P13569)
Experiment: Membrane Potential Dye, Enteroid Assay B
Format: cell-based
Method: Base medium (ADF+++) consisted of Advanced […], 2 mM Glutamax, 10 mM HEPES, 1 μg/mL penicillin/streptomycin.
Intestinal enteroid maintenance medium (IEMMN) consisted of ADF+++, 1× B27 supplement, 1× N2 supplement, 1.25 mM N-acetyl cysteine, 10 mM Nicotinamide, 50 ng/mL hEGF, 10 nM Gastrin, 1 μg/mL hR-spondin-1, 100 ng/mL hNoggin, TGF-b type 1 inhibitor A-83-01, 100 μg/mL Primocin, 10 μM P38 MAPK inhibitor SB202190.
Bath 1 Buffer consisted of 1 mM MgCl2, 160 mM NaCl, 4.5 mM KCl, 10 mM HEPES, 10 mM Glucose, 2 mM CaCl2).
Chloride Free Buffer consisted of 1 mM Magnesium Gluconate, 2 mM Calcium Gluconate, 4.5 mM Potassium Gluconate, 160 mM Sodium Gluconate, 10 mM HEPES, 10 mM Glucose.
Bath 1 Dye Solution consisted of Bath 1 Buffer, 0.04% Pluronic F127, 20 μM Methyl Oxonol, 30 μM CaCCinh-A01, 30 μM Chicago Sky Blue.
Chloride Free Dye Solution consisted of Chloride Free Buffer, 0.04% Pluronic F127, 20 μM Methyl Oxonol, 30 μM CaCCinh-A01, 30 μM Chicago Sky Blue.
Chloride Free Dye Stimulation Solution consisted of Chloride Free Dye Solution, 10 μM forskolin, 100 μM IBMX, and 300 nM Compound III.
Human intestinal epithelial enteroid cells were obtained from the Hubrecht Institute for Developmental Biology and Stem Cell Research, Utrecht, The Netherlands and expanded in T-Flasks as previously described (Dekkers J F, Wiegerinck C L, de Jonge H R, Bronsveld I, Janssens H M, de Winter-de Groot K M, Brandsma A M, de Jong N W M, Bijvelds M J C, Scholte B J, Nieuwenhuis E E S, van den Brink S, Clevers H, van der Ent C K, Middendorp S and M Beekman J M. A functional CFTR assay using primary cystic fibrosis intestinal organoids. Nat Med. 2013 July; 19(7):939-45.).
3. Enteroid Cell Harvesting and Seeding
Cells were recovered in cell recovery solution, collected by centrifugation at 650 rpm for 5 min at 4° C., resuspended in TrypLE and incubated for 5 min at 37° C. Cells were then collected by centrifugation at 650 rpm for 5 min at 4° C. and resuspended in IEMM containing 10 μM ROCK inhibitor (RI). The cell suspension was passed through a 40 μm cell strainer and resuspended at 1×10^6 cells/mL in IEMM containing 10 μM RI. Cells were seeded at 5000 cells/well into multi-well plates and incubated for overnight at 37° C., 95% humidity and 5% CO2 prior to assay.
5. Membrane Potential Dye, Enteroid Assay B
Enteroid cells were incubated with test compound in IEMM for 18-24 hours at 37° C., 95% humidity and 5% CO2. […] Briefly, cells were washed 5 times in Bath 1 Buffer. Bath 1 Dye Solution was added and the cells were incubated for 25 min at room temperature. Following dye incubation, cells were washed 3 times in Chloride Free Dye Solution. Chloride transport was initiated by addition of Chloride Free Dye Stimulation Solution and the fluorescence signal was read for 15 min. […] Chloride transport was then expressed as a percentage of the chloride transport following treatment with 1 μM (14S)-8-[3-(2-{Dispiro[2.0.2.1]heptan-7-yl}ethoxy)-1H-pyrazol-1-yl]-12,12-dimethyl-2λ^6-thia-3,9,11,18,23-pentaazatetracyclo[17.3.1.111,14.05,10]tetracosa-1(22),5,7,9,19(23),20-hexaene-2,2,4-trione, 3 μM (R)-1-(2,2-difluorobenzo[d][1,3]dioxol-5-yl)-N-(1-(2,3-dihydroxypropyl)-6-fluoro-2-(1-hydroxy-2-methylpropan-2-yl)-1H-indol-5-yl)cyclopropanecarboxamide and 300 nM acute N-[2,4-bis(1,1-dimethylethyl)-5-hydroxyphenyl]-1,4-dihydro-4-oxoquinoline-3-carboxamide triple combination control (% Activity).

[1] = Table 10, read-out: Ent. B EC50

Chain of CFTR (P13569 with tags, fused parts or gaps DEL508-508): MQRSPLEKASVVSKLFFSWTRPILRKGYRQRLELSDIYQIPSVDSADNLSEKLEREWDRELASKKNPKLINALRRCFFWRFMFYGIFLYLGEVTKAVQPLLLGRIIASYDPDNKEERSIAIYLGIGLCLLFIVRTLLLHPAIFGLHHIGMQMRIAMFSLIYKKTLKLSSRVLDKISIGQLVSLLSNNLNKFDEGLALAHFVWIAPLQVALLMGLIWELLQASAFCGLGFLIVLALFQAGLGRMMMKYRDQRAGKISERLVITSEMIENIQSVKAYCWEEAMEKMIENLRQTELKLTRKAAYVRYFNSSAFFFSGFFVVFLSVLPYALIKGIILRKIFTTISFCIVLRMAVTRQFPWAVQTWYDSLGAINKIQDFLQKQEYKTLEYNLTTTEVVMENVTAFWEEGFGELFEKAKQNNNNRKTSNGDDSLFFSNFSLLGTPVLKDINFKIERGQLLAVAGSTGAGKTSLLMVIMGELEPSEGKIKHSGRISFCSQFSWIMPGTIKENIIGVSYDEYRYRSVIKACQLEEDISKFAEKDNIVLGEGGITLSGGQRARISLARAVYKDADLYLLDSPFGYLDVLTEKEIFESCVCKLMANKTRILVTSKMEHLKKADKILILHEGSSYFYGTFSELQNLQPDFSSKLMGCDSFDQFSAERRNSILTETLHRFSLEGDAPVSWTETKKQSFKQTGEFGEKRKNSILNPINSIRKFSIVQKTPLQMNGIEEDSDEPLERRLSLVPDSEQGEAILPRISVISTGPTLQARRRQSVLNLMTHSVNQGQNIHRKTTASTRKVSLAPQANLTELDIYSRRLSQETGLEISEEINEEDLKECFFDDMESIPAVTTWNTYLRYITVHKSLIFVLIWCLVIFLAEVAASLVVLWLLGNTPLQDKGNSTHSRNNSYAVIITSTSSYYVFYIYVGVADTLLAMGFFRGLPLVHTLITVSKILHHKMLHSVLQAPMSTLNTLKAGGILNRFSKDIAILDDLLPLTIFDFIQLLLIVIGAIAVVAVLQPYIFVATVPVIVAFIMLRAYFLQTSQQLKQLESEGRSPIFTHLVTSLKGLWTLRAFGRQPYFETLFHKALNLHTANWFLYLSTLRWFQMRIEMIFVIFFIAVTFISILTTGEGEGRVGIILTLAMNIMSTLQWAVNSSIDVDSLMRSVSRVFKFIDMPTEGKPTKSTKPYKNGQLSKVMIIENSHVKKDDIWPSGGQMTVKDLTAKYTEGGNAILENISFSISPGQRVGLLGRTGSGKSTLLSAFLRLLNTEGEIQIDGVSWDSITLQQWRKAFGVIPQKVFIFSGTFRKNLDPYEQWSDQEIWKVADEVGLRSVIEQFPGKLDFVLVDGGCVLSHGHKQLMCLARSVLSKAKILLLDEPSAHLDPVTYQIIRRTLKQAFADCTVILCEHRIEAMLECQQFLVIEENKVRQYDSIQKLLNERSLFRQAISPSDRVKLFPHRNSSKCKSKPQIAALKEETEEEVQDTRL

Ent. B Max Activity (%) (Table 9) | pEC50 (Table 9, read-out: Ent. B EC50) | Ent. B Max Activity (%) (Table 10) | pEC50 [1] | Compound | also measured
+++ (+++ is >60%) | > 6.00 | – | – | CN[C@H]1CC2(C1)C[C@H](N1C(=O)c3cccc(c3)S(=O)(=O)Nc3nc(cc(-c4c(C)cccc4C)n3)OC[C@H]1CC(C)C)C2 (some centres unmarked) [Compound 281] | –
– | – | ++ (++ is 30-60%) | > 6.00 | COC(=O)N(C)[C@]1(C)C[C@H](N2C(=O)c3cccc(c3)S(=O)(=O)Nc3nc(cc(-c4c(C)cccc4C)n3)OC[C@H]2CC(C)(C)C)C1 (single isomer, unassigned) [Compound 173] | –
– | – | +++ (+++ is >60%) | > 6.00 | [H][C@]1(N2C(=O)c3cccc(c3)S(=O)(=O)Nc3nc(cc(-c4c(C)cccc4C)n3)OC[C@H]2CC(C)C)C[C@@]2(C[C@H](C(C)(C)O)C2)C1 (stereo in doubt) [Compound 412] | –
+++ (+++ is >60%) | > 6.00 | – | – | CO[C@H]1C[C@H]2CC(N3C(=O)c4cccc(c4)S(=O)(=O)Nc4nc(cc(-c5c(C)cccc5C)n4)OC[C@H]3CC(C)C)C[C@H]2C1 (stereo partly drawn) [Compound 37, (11R)-12-[(3aR,6aS)-5-Methoxy-1,2,3,3a,4,5,6,6a-octahydropentalen-2-yl]-6-(2,6-dimethylphenyl)-11-isobutyl-2,2-dioxo-9-oxa-2λ^6-thia-3,5,12,19-tetrazatricyclo[12.3.1.14,8]nonadeca-1(18),4(19),5,7,14,16-hexaen-13-one] | –
– | – | +++ (+++ is >60%) | > 6.00 | Cc1cccc(C)c1-c1cc2nc(n1)NS(=O)(=O)c1cccc(c1)C(=O)N([C@H]1C[C@@]3(C[C@H](NC(=O)C(C)C)C3)C1)[C@H](CC1(C(F)(F)F)CC1)CO2 (some centres unmarked) [Compound 247] | –
– | – | +++ (+++ is >60%) | > 6.00 | Cc1cccc(C)c1-c1cc2nc(n1)NS(=O)(=O)c1cccc(c1)C(=O)N([C@H]1C[C@@H](OC(=O)Nc3ccccc3)C1)[C@H](CC(C)C)CO2 (stereo in doubt) [Compound 360] | –
+++ (+++ is >60%) | > 6.00 | – | – | Cc1cccc(C)c1-c1cc2nc(n1)NS(=O)(=O)c1cccc(c1)C(=O)N([C@H]1C[C@@H](N3CC(N(C)C)C3)C1)[C@H](CC(C)C)CO2 [Compound 66, (11R)-12-[3-[3-(Dimethylamino)azetidin-1-yl]cyclobutyl]-6-(2,6-dimethylphenyl)-11-isobutyl-2,2-dioxo-9-oxa-2λ^6-thia-3,5,12,19-tetrazatricyclo[12.3.1.14,8]nonadeca-1(18),4(19),5,7,14,16-hexaen-13-one] | –
– | – | +++ (+++ is >60%) | > 6.00 | Cc1cccc(C)c1-c1cc2nc(n1)NS(=O)(=O)c1cccc(c1)C(=O)N(C1CC3(CC(O)C3)C1)[C@H](CC(C)(C)C)CO2 (single isomer, unassigned) [Compound 122] | –
+++ (+++ is >60%) | 5.52 to 6.00 | – | – | Cc1cccc(C)c1-c1cc2nc(n1)NS(=O)(=O)c1cc(n(C)n1)C(=O)N(C1CC3(CCN(C)CC3)C1)[C@H](CC(C)C)CO2 [Compound 293] | –
– | – | ++ (++ is 30-60%) | > 6.00 | Cc1cccc(C)c1-c1cc2nc(n1)NS(=O)(=O)c1cccc(c1)C(=O)N(C1CC(C)(OC(F)(F)F)C1)[C@H](CC(C)(C)C)CO2 (single isomer, unassigned) [Compound 157] | –
– | – | +++ (+++ is >60%) | > 6.00 | CC(=O)NCC[C@H]1C[C@@H](N2C(=O)c3cccc(c3)S(=O)(=O)Nc3nc(cc(-c4c(C)cccc4C)n3)OC[C@H]2CC(C)(C)C)C1 (single isomer, unassigned) [Compound 155] | –
– | – | – | – | Cc1cccc(C)c1-c1cc2nc(n1)NS(=O)(=O)c1cccc(c1)C(=O)N(C1CCC3(CC1)CC3)C[C@@H](C)O2 [Compound 442] | Ent. B Max Activity (%): ++ (++ is 30-60%); pEC50 (read-out: Ent. B EC50): > 6.00
– | – | ++ (++ is 30-60%) | > 6.00 | Cc1cccc(C)c1-c1cc2nc(n1)NS(=O)(=O)c1cccc(c1)C(=O)N(C1CC(N(C)C)C1)[C@H](CC(C)(C)C)CO2 (some centres unmarked) [Compound 253] | –
++ (++ is 30-60%) | > 6.00 | – | – | Cc1cccc(C)c1-c1cc2nc(n1)NS(=O)(=O)c1cccc(c1)C(=O)N([C@H]1CC3(C[C@H](N(C)C(=O)OC(C)C)C3)C1)[C@H](CC(C)C)CO2 (some centres unmarked) [Compound 283] | –
+++ (+++ is >60%) | > 6.00 | – | – | CCN1CCC2(CC1)CC(N1C(=O)c3cccc(c3)S(=O)(=O)Nc3nc(cc(-c4c(C)cccc4C)n3)OC[C@H]1CC(C)C)C2 [Compound 258] | –
+++ (+++ is >60%) | > 6.00 | – | – | Cc1cccc(C)c1-c1cc2nc(n1)NS(=O)(=O)c1cccc(c1)C(=O)N(C1CC(NC34CC(C3)C4)C1)[C@H](CC(C)C)CO2 (stereo partly drawn) [Compound 73, (11R)-12-[3-(1-Bicyclo[1.1.1]pentanylamino)cyclobutyl]-6-(2,6-dimethylphenyl)-11-isobutyl-2,2-dioxo-9-oxa-2λ^6-thia-3,5,12,19-tetrazatricyclo[12.3.1.14,8]nonadeca-1(18),4(19),5,7,14,16-hexaen-13-one] | –
+++ (+++ is >60%) | > 6.00 | – | – | Cc1cccc(C)c1-c1cc2nc(n1)NS(=O)(=O)c1cccc(c1)C(=O)N(C1CC(NC(=O)C(C)C)C1)[C@H](CC(C)(C)C)CO2 (stereo in doubt) [Compound 445] | –
– | – | +++ (+++ is >60%) | > 6.00 | Cc1cccc(C)c1-c1cc2nc(n1)NS(=O)(=O)c1cccc(c1)C(=O)N([C@@H]1CC[C@@H]1C1CC1)[C@H](CC(C)(C)C)CO2 (racemic) [Compound 149, (11R)-12-(2-Cyclopropylcyclobutyl)-6-(2,6-dimethylphenyl)-11-(2,2-dimethylpropyl)-2,2-dioxo-9-oxa-2λ^6-thia-3,5,12,19-tetrazatricyclo[12.3.1.14,8]nonadeca-1(18),4(19),5,7,14,16-hexaen-13-one] | –
– | – | ++ (++ is 30-60%) | > 6.00 | Cc1cccc(C)c1-c1cc2nc(n1)NS(=O)(=O)c1cccc(c1)C(=O)N([C@@H]1CC[C@@H]1C1CC1)[C@H](CC(C)(C)C)CO2 (single isomer, unassigned) [Compound 147] | –
+++ (+++ is >60%) | > 6.00 | – | – | Cc1cccc(C)c1-c1cc2nc(n1)NS(=O)(=O)c1cccc(c1)C(=O)N([C@H]1C[C@@H](NC(C)C)C1)[C@H](CC(C)C)CO2 [Compound 367] | –
– | – | ++ (++ is 30-60%) | > 6.00 | Cc1cccc(C)c1-c1cc2nc(n1)NS(=O)(=O)c1cccc(c1)C(=O)N([C@H]1C[C@H](OC(=O)NCC3CCCCC3)C1)[C@H](CC(C)C)CO2 (stereo in doubt) [Compound 363] | –
+++ (+++ is >60%) | > 6.00 | – | – | COC(=O)N1CCC2(CC1)CC(N1C(=O)c3cccc(c3)S(=O)(=O)Nc3nc(cc(-c4c(C)cccc4C)n3)OC[C@H]1CC1(C(F)(F)F)CC1)C2 [Compound 261] | –
+++ (+++ is >60%) | > 6.00 | – | – | COC(=O)N[C@H]1C[C@@H](N2C(=O)c3cccc(c3)S(=O)(=O)Nc3nc(cc(-c4c(C)cccc4C)n3)OC[C@H]2CC(C)C)C1 [Compound 368] | –
+++ (+++ is >60%) | > 6.00 | – | – | COCCN(C)C1CC(N2C(=O)c3cccc(c3)S(=O)(=O)Nc3nc(cc(-c4c(C)cccc4C)n3)OC[C@H]2CC(C)C)C1 (some centres unmarked) [Compound 382] | –
– | – | +++ (+++ is >60%) | > 6.00 | COCCNC(=O)O[C@H]1C[C@H](N2C(=O)c3cccc(c3)S(=O)(=O)Nc3nc(cc(-c4c(C)cccc4C)n3)OC[C@H]2CC(C)C)C1 (stereo in doubt) [Compound 364] | –
